{"source": "patent EP0462831B1", "about": "“Bicyclic pyran derivatives and their use as inhibitors of 5-lipoxygenase” (ZENECA LIMITED, priority 1990, dated 1991)", "key": {"5-LO [1]": {"target": "T1, 5-LO (Homo sapiens, UniProt P09917)", "T1 construct": "incubating a test compound with heparinised human blood, prior to challenge with the calcium ionophore A23187; endogenous in cells; host or cells: blood cells in heparinised human whole blood", "T1 sequence (P09917 1-674)": "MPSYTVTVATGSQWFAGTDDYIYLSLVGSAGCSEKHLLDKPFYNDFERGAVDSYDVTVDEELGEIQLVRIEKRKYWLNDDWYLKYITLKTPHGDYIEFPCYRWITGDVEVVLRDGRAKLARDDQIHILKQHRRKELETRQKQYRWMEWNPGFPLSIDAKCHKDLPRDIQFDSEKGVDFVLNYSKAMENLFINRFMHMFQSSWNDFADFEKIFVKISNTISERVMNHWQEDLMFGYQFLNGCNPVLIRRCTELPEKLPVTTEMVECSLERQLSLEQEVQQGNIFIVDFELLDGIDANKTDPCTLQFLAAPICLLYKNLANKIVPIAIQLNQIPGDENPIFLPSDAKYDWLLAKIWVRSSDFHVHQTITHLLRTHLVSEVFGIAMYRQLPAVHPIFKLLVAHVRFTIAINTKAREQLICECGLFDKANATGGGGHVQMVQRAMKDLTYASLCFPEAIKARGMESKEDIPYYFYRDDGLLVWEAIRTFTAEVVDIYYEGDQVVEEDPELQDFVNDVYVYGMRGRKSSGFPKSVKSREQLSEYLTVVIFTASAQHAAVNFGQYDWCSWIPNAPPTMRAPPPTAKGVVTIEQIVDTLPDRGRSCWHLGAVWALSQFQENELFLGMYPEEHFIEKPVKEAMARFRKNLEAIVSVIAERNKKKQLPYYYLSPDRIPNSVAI", "assay": "Test b): heparinised human blood challenged with calcium ionophore A23187, radioimmunoassay of LTB₄", "format": "cell-based", "settings": "A23187 challenge, read-out: IC₅₀ (LTB₄)", "procedure": "As stated previously, the novel compounds of the formula I are inhibitors of the enzyme 5-LO. […] This test provides a measure of the intrinsic inhibitory properties of a test compound against soluble 5-LO in an extracellular environment. • b) An in vitro assay system involving incubating a test compound with heparinised human blood, prior to challenge with the calcium ionophore A23187 and then indirectly measuring the inhibitory effects on 5-LO by assaying the amount of LTB₄ using specific radioimmunoassays described by Carey and Forder (F. Carey and R.A. Forder, Prostaglandins, Leukotrienes Med., 1986, 22, 57; Prostaglandins, 1984, 28, 666; Brit. J. Pharmacol. 1985, 84, 34P) which involve the use of a protein-LTB₄ conjugate produced using the procedure of Young et alia (Prostaglandins, 1983, 26(4), 605-613). The effects of a test compound on the enzyme cyclooxygenase (which is involved in the alternative metabolic pathway for arachidonic acid and gives rise to prostaglandins, thromboxanes and related metabolites) may be measured at the same time using the specific radioimmunoassay for thromboxane B₂(TxB₂) described by Carey and Forder (see above). This test provides an indication of the effects of a test compound against 5-LO and also cyclooxygenase in the presence of blood cells and proteins. […]"}, "5-LO [2]": {"target": "T2, 5-LO (Rattus norvegicus, UniProt P12527)", "T2 construct": "liberation of LTB₄ induced by zymosan within an air pouch generated within the subcutaneous tissue of the back of male rats; from tissue; host or cells: subcutaneous air pouch of male rats (in vivo)", "T2 sequence (P12527 1-673)": "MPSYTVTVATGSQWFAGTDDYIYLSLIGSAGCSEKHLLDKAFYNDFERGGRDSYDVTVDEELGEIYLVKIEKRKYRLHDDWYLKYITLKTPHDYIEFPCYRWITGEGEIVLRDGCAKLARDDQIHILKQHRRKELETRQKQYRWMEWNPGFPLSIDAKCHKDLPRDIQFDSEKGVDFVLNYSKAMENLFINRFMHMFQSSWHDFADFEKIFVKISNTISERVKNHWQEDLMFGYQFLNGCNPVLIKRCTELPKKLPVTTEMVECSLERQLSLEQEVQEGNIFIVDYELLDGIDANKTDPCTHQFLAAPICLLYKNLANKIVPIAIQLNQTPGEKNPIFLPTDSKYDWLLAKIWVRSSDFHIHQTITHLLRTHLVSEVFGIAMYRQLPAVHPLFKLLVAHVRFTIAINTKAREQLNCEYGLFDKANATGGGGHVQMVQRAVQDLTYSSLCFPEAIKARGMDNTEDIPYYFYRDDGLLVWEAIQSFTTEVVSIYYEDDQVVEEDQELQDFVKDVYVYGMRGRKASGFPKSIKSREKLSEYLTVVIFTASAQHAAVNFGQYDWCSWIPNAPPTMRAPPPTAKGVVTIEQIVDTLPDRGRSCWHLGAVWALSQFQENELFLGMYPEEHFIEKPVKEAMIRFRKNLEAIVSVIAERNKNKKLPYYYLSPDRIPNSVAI", "assay": "Test g): zymosan-induced liberation of LTB₄ in a subcutaneous air pouch", "format": "in vivo, rats", "settings": "oral, 3 hours, read-out: oral ED₅₀(LTB₄)"}}, "data": [{"smiles": "COC1(c2cccc(Sc3ccc4c(c3)n(C)c(=O)n4C)c2)CCOCC1", "note": "[Example 1, 4-[3-(1,3-dimethyl-2-oxo-2,3-dihydrobenzimidazol-5-ylthio)phenyl]-4-methoxy-tetrahydropyran]", "values": [{"measurement": "IC50", "setting": "5-LO [1]", "result": 50, "unit": "nM"}, {"measurement": "ED50", "setting": "5-LO [2]", "result": "< 2", "unit": "mg/kg"}]}]}
